Experimental findings from ChEMBL document CHEMBL4130392, “Eugenol derived immunomodulatory molecules against visceral leishmaniasis” (Eur J Med Chem, 2017) are described below.

Broadly, the IC50 is the concentration at which inhibition is half-maximal. Higher therefore signals weaker potency. By EC50 is commonly meant the midpoint of the concentration-response curve. The low end stands for higher potency in that assay, the high end for lower potency in that assay.

The test system of data set [1] is Leishmania donovani. The data set can be described thus: Antileishmanial activity against Leishmania donovani MHOM/IN/AG/83 promastigotes after 48 hrs by MTT assay. Conditions: MHOM/IN/AG/83, 48 h. The data set is classed as functional, organism-based. Background: Formazan colour is commonly taken as a measure of viable cells.
The subject of data set [2] is Leishmania donovani. The data set can be described thus: Antileishmanial activity against Leishmania donovani MHOM/IN/AG/83 amastigotes infected in BALB/c mouse peritoneal macrophages after 42 hrs by Giemsa staining-based microscopic analysis. The data set is classed as functional, organism-based. The following applies: MHOM/IN/AG/83, 42 h.
Data set [3] deals with RAW264.7. As to the kind of experiment: Cytotoxicity against mouse RAW264.7 cells after 48 hrs by MTT assay. Type of data set: cell-based. Conditions: RAW264.7, 48 h.
The test system of data set [4] is Peritoneal macrophage. The data set can be described thus: Cytotoxicity against BALB/c mouse peritoneal macrophages after 48 hrs by MTT assay. Type of data set: cell-based.
Data set [5] is described as follows: Therapeutic index, ratio of IC50 for mouse RAW264.7 cells to IC50 for Leishmania donovani MHOM/IN/AG/83 promastigotes. Type of data set: toxicity. Conditions: read-out: Ratio IC50.
Data set [6] is described as follows: Therapeutic index, ratio of EC50 for BALB/c mouse peritoneal macrophages to EC50 for Leishmania donovani MHOM/IN/AG/83 amastigotes. Conditions: read-out: Ratio EC50. Type of data set: toxicity.
Data set [7] deals with Peritoneal macrophage. The data set can be described thus: Induction of NO generation in Leishmania donovani MHOM/IN/AG/83 infected BALB/c mouse peritoneal macrophages assessed as nitrite levels after 48 hrs by Griess assay relative to untreated control. The data set is classed as functional. On the technique in general: Nitrite, measured by Griess reagent, commonly stands in for NO production.

Regarding `C[C@@H]1[C@H](O)[C@@H](C)/C=C/C=C/C=C/C=C/C=C/C=C/C=C/[C@H](O[C@@H]2O[C@H](C)[C@@H](O)[C@H](N)[C@@H]2O)C[C@@H]2O[C@](O)(C[C@@H](O)C[C@@H](O)[C@H](O)CC[C@@H](O)C[C@@H](O)CC(=O)O[C@H]1C)C[C@H](O)[C@H]2C(=O)O` [AMPHOTERICIN B], the figures for the IC50 in data set [1] and in data set [3] were 1.36 µM and 10 µM, respectively. Further, the EC50 in data set [2] turned out to be 1.18 µM; in data set [4], 9.18 µM. Further, the selectivity ratio in data set [5] worked out at 7.4; in data set [6] it was 7.78. Further, in data set [7], the Activity result is “Dose-dependent effect”.
On to `C=CCOc1ccc(CC=C)cc1OC` [ALLYLEUGENOL], for which the half-maximal inhibitory concentration (IC50) was 238 µM in data set [1] and 385 µM in data set [3]. The figures for the concentration for a half-maximal effect (EC50) in data set [2] and in data set [4] were 120 µM and 353 µM, respectively. The selectivity ratio in data set [5] is 1.64; in data set [6] it was 2.95. The values for the Activity result in data set [7] and in data set [7] (record 2) were “Dose-dependent effect” and 13.86 µM, respectively.
Regarding `C=CCc1ccc(OC(=O)c2ccccc2Cl)c(OC)c1`, the IC50 was 64.5 µM in data set [1] and 251 µM in data set [3]. Moreover, the EC50 in data set [2] was found to be 57.9 µM; in data set [4] it was 275 µM. Besides, the values for the selectivity ratio in data set [5] and in data set [6] were 3.91 and 4.79, respectively. The Activity result in data set [7] is “Dose-dependent effect”; in data set [7] (record 2) it was 14.58 µM.
For the compound `C=CCc1ccc(OCCCC)c(OC)c1` [N-BUTYLEUGENOL], the half-inhibitory concentration (IC50) amounted to 309 µM in data set [1] and 329 µM in data set [3]. Also, the concentration giving a half-maximal response (EC50) in data set [2] was 147 µM; in data set [4], 345 µM. Besides, the selectivity ratio in data set [5] came out at 1.07; in data set [6] it was 2.35. Further, the Activity result in data set [7] was “Dose-dependent effect”; in data set [7] (record 2) it was 14.23 µM.
Take `C=CCc1ccc(OCCCCCCC)c(OC)c1`: the 50% inhibitory concentration (IC50) was 61.3 µM in data set [1] and 198 µM in data set [3]. Besides, the EC50 in data set [2] is 41.1 µM; in data set [4], 197 µM. For the same compound, the selectivity ratio in data set [5] was found to be 3.28; in data set [6], 4.88. Moreover, the Activity entry in data set [7] is “Dose-dependent effect”; in data set [7] (record 2) it was 22.43 µM.
In the case of `C=CCc1ccc(OCCCCCCCCCC)c(OC)c1`, the IC50 in data set [1] was 49.9 µM; in data set [3] it was 412 µM. In addition, the EC50 in data set [2] stood at 29 µM; in data set [4], 272 µM. Further, the selectivity ratio was 8.61 in data set [5] and 9.67 in data set [6]. Besides, the Activity entry in data set [7] was “Dose-dependent effect”; in data set [7] (record 2), 26.17 µM.
Consider `C=CCc1ccc(OC(=O)CCCCCCCCC)c(OC)c1`, for which the IC50 in data set [1] was found to be 67.5 µM; in data set [3], 373 µM. The 50% effective concentration (EC50) in data set [2] is 33.1 µM; in data set [4], 404 µM. For the same compound, the selectivity ratio in data set [5] is 5.66; in data set [6] it was 12.4. For the same compound, the Activity entry in data set [7] is “Dose-dependent effect”; in data set [7] (record 2), 27.31 µM.
In the case of `C=CCc1ccc(OCCCCCCCCCCCCCCCC)c(OC)c1`, the 50% inhibitory concentration (IC50) in data set [1] amounted to 58.1 µM; in data set [3], 292 µM. Also, the half-maximal effective concentration (EC50) in data set [2] is 17.1 µM; in data set [4], 251 µM. Further, the selectivity ratio in data set [5] turned out to be 5.02; in data set [6], 14.5. The Activity result was “Dose-dependent effect” in data set [7] and 29.1 µM in data set [7] (record 2).
As for `C=CCc1ccc(OCCCCCCCCC)c(OC)c1`, the IC50 in data set [1] is 81.9 µM; in data set [3] it was 332 µM. Besides, the 50% effective concentration (EC50) in data set [2] came out at 51.8 µM; in data set [4], 326 µM. For the same compound, the selectivity ratio in data set [5] amounted to 4.27; in data set [6], 6.47. Besides, the Activity entry was “Dose-dependent effect” in data set [7] and 25.19 µM in data set [7] (record 2).
Turning to `C=CCc1ccc(OCC=C(C)C)c(OC)c1`, the IC50 is 242 µM in data set [1] and 359 µM in data set [3]. The EC50 in data set [2] is 157 µM; in data set [4], 372 µM. For the same compound, the selectivity ratio in data set [5] was 1.48; in data set [6], 2.38. The Activity result in data set [7] was “Dose-dependent effect”; in data set [7] (record 2) it was 8.37 µM.
`C=CCc1ccc(OC(=O)C2CCNCC2)c(OC)c1`: the IC50 in data set [1] was 89 µM; in data set [3], 261 µM. The EC50 in data set [2] turned out to be 66.3 µM; in data set [4], 307 µM. In addition, the selectivity ratio in data set [5] worked out at 2.96; in data set [6], 4.66. Further, the Activity result was “Dose-dependent effect” in data set [7] and 21.55 µM in data set [7] (record 2).
For the compound `C=CCc1ccc(OC(=O)CCC)c(OC)c1`, the 50% inhibitory concentration (IC50) came to 64.5 µM in data set [1] and 233 µM in data set [3]. Moreover, the EC50 was 72.1 µM in data set [2] and 191 µM in data set [4]. The selectivity ratio in data set [5] stood at 3.61; in data set [6], 2.71. For the same compound, the Activity result is “Dose-dependent effect” in data set [7] and 23.08 µM in data set [7] (record 2).
For the compound `C=CCc1ccc(OC(=O)Cc2ccccc2)c(OC)c1`, the concentration for half-maximal inhibition (IC50) was 33.4 µM in data set [1] and 391 µM in data set [3]. Further, the EC50 in data set [2] stood at 9.28 µM; in data set [4], 385 µM. Also, the selectivity ratio is 11.8 in data set [5] and 41.8 in data set [6]. For the same compound, the Activity entry was “Dose-dependent effect” in data set [7] and 36.45 µM in data set [7] (record 2).
Regarding `C=CCc1ccc(OCC)c(OC)c1` [ETHYLEUGENOL], the IC50 in data set [1] came out at 71.7 µM; in data set [3] it was 102 µM. Moreover, the 50% effective concentration (EC50) in data set [2] came to 162 µM; in data set [4], 90.5 µM. Moreover, the selectivity ratio in data set [5] was 1.43; in data set [6], 0.55. The Activity entry in data set [7] is “Dose-dependent effect”; in data set [7] (record 2), 10.43 µM.
On to `C=CCc1ccc(OC(=O)CCCCCCCCCCCCCCC)c(OC)c1`, for which the figures for the concentration for half-maximal inhibition (IC50) in data set [1] and in data set [3] were 43.3 µM and 374 µM, respectively. Also, the concentration giving a half-maximal response (EC50) in data set [2] was found to be 8.54 µM; in data set [4], 357 µM. Moreover, the figures for the selectivity ratio in data set [5] and in data set [6] were 8.56 and 42.2, respectively. The Activity result in data set [7] is “Dose-dependent effect”; in data set [7] (record 2), 39.42 µM.
Consider `C=CCc1ccc(OC(C)=O)c(OC)c1` [EUGENYL ACETATE], for which the values for the IC50 in data set [1] and in data set [3] were 166 µM and 356 µM, respectively. Besides, the EC50 came to 99.1 µM in data set [2] and 352 µM in data set [4]. In addition, the selectivity ratio in data set [5] stood at 2.15; in data set [6], 3.59. In addition, the Activity entry in data set [7] was “Dose-dependent effect”; in data set [7] (record 2), 12.44 µM.
Take `C=CCc1ccc(OC)c(OC)c1` [METHYLEUGENOL]: the results for the IC50 in data set [1] and in data set [3] were 475 µM and 517 µM, respectively. Further, the EC50 in data set [2] was 203 µM; in data set [4], 485 µM. The figures for the selectivity ratio in data set [5] and in data set [6] were 1.09 and 2.39, respectively. Moreover, the Activity result was “Dose-dependent effect” in data set [7] and 10.82 µM in data set [7] (record 2).
For `C=CCc1ccc(OC(=O)c2ccc([N+](=O)[O-])cc2)c(OC)c1`, the half-inhibitory concentration (IC50) in data set [1] was found to be 82.4 µM; in data set [3], 261 µM. Also, the concentration giving a half-maximal response (EC50) in data set [2] came to 26.7 µM; in data set [4], 244 µM. The selectivity ratio in data set [5] came out at 3.18; in data set [6], 9.21. Moreover, the Activity entry in data set [7] was “Dose-dependent effect”; in data set [7] (record 2), 27.28 µM.
